Like-named read-outs stand apart in the source and are kept apart here.
System: HEK293T cells
Type: cell-based
Procedure, shortened: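 HEK293T and U2OS cells (DMEM) and MRC-9 fibroblasts (EMEM) exposed to compounds at 1 and 10 μM. Live-cell confocal imaging of cell shape and fluorescence before and at 12, 24 and 48 h. Normalized to 0.1% DMSO; biological duplicates with SEM.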

[1] = 1 µM, 0 h, HEK293T, replicate 2
[2] = 1 µM, 12 h, HEK293T, replicate 2
[3] = 1 µM, 24 h, HEK293T, replicate 2
[4] = 1 µM, 48 h, HEK293T, replicate 1
[5] = 1 µM, 48 h, HEK293T, replicate 2
[6] = 10 µM, 0 h, HEK293T, replicate 2
[7] = 10 µM, 12 h, HEK293T, replicate 2
[8] = 10 µM, 24 h, HEK293T, replicate 2
[9] = 10 µM, 48 h, HEK293T, replicate 2
[10] = HEK293T, 1 µM, 0 h after treatment
[11] = HEK293T, 1 µM, 12 h after treatment
[12] = HEK293T, 1 µM, 24 h after treatment
[13] = HEK293T, 10 µM, 0 h after treatment
[14] = HEK293T, 10 µM, 12 h after treatment
[15] = HEK293T, 10 µM, 24 h after treatment
[16] = HEK293T, 10 µM, 48 h after treatment

CN1C(=O)[C@@H](N2CCc3c(nn(Cc4ccccc4)c3C(N)=O)C2=O)COc2cc(Cl)ccc21 [Compound 10, (S)-2-benzyl-6-(8-chloro-5-methyl-4-oxo-2,3,4,5-tetrahydrobenzo[b][1,4]oxazepin-3-yl)-7-oxo-4,5,6,7-tetrahydro-2H-pyrazolo[3,4-c]pyridine-3-carboxamide]
Cell count normalized to cells treated with DMSO control [1]: 0.9791
Cell count per well [1]: 224
Population Fragmented Nuclei (%) [1]: 4.50%
Population Healthy Nuclei (%) [1]: 67.00%
Population Pyknosed Nuclei (%) [1]: 28.50%
Population apoptotic cell (%) [1]: 66.67%
Population cell that influence microtubule strucutre (%) [1]: 23.88%
Population with increased mitochondrial mass (%) [1]: 83.58%
Population with membrane disruption (%) [1]: 0.00%
Cell count normalized to cells treated with DMSO control [2]: 1.07
Cell count per well [2]: 375
Population Fragmented Nuclei (%) [2]: 6.44%
Population Healthy Nuclei (%) [2]: 80.67%
Population Pyknosed Nuclei (%) [2]: 12.89%
Population apoptotic cell (%) [2]: 23.91%
Population cell that influence microtubule strucutre (%) [2]: 20.49%
Population with increased mitochondrial mass (%) [2]: 45.83%
Population with membrane disruption (%) [2]: 0.69%
Cell count normalized to cells treated with DMSO control [3]: 1.152
Cell count per well [3]: 520
Population Fragmented Nuclei (%) [3]: 9.33%
Population Healthy Nuclei (%) [3]: 82.94%
Population Pyknosed Nuclei (%) [3]: 7.74%
Population apoptotic cell (%) [3]: 43.59%
Population cell that influence microtubule strucutre (%) [3]: 13.64%
Population with increased mitochondrial mass (%) [3]: 27.75%
Population with membrane disruption (%) [3]: 0.24%
Cell count normalized to cells treated with DMSO control [4]: 1.025
Cell count per well [4]: 1037
Population Fragmented Nuclei (%) [4]: 16.00%
Population Healthy Nuclei (%) [4]: 79.80%
Population Pyknosed Nuclei (%) [4]: 4.20%
Population apoptotic cell (%) [4]: 6.98%
Population cell that influence microtubule strucutre (%) [4]: 10.88%
Population with increased mitochondrial mass (%) [4]: 12.47%
Population with membrane disruption (%) [4]: 2.32%
Cell count normalized to cells treated with DMSO control [5]: 1.189
Cell count per well [5]: 812
Population Fragmented Nuclei (%) [5]: 18.11%
Population Healthy Nuclei (%) [5]: 75.56%
Population Pyknosed Nuclei (%) [5]: 6.33%
Population apoptotic cell (%) [5]: 17.65%
Population cell that influence microtubule strucutre (%) [5]: 11.82%
Population with increased mitochondrial mass (%) [5]: 11.00%
Population with membrane disruption (%) [5]: 1.97%
cytotoxicity (1 μM, HEK293T): no cytotoxicity
Cell count normalized to cells treated with DMSO control [6]: 0.8086
Cell count per well [6]: 185
Population Fragmented Nuclei (%) [6]: 2.99%
Population Healthy Nuclei (%) [6]: 66.47%
Population Pyknosed Nuclei (%) [6]: 30.54%
Population apoptotic cell (%) [6]: 64.71%
Population cell that influence microtubule strucutre (%) [6]: 27.03%
Population with increased mitochondrial mass (%) [6]: 85.59%
Population with membrane disruption (%) [6]: 0.00%
Cell count normalized to cells treated with DMSO control [7]: 0.8449
Cell count per well [7]: 296
Population Fragmented Nuclei (%) [7]: 7.69%
Population Healthy Nuclei (%) [7]: 76.54%
Population Pyknosed Nuclei (%) [7]: 15.77%
Population apoptotic cell (%) [7]: 63.41%
Population cell that influence microtubule strucutre (%) [7]: 38.69%
Population with increased mitochondrial mass (%) [7]: 77.89%
Population with membrane disruption (%) [7]: 0.00%
Cell count normalized to cells treated with DMSO control [8]: 0.8682
Cell count per well [8]: 392
Population Fragmented Nuclei (%) [8]: 11.70%
Population Healthy Nuclei (%) [8]: 77.99%
Population Pyknosed Nuclei (%) [8]: 10.31%
Population apoptotic cell (%) [8]: 56.76%
Population cell that influence microtubule strucutre (%) [8]: 28.21%
Population with increased mitochondrial mass (%) [8]: 65.71%
Population with membrane disruption (%) [8]: 0.00%
Cell count normalized to cells treated with DMSO control [9]: 0.7573
Cell count per well [9]: 517
Population Fragmented Nuclei (%) [9]: 16.37%
Population Healthy Nuclei (%) [9]: 77.05%
Population Pyknosed Nuclei (%) [9]: 6.59%
Population apoptotic cell (%) [9]: 39.39%
Population cell that influence microtubule strucutre (%) [9]: 19.17%
Population with increased mitochondrial mass (%) [9]: 40.93%
Population with membrane disruption (%) [9]: 0.00%
toxicity (10 μM, within the 48 h time frame, b30 names HEK293T (apoptotic cell population)): slight increase in toxicity
impact on tubulin, mitochondrial mass, and cellular permeability in healthy cells (HEK293T, 1 μM (Figure 6)): comparable to that of the 0.1% DMSO control
Cell count normalized to cells treated with DMSO control [10]: 1.066
Cell count per well [10]: 318
Population Fragmented Nuclei (%) [10]: 7.28%
Population Healthy Nuclei (%) [10]: 48.28%
Population Pyknosed Nuclei (%) [10]: 44.44%
Population apoptotic cell (%) [10]: 40.52%
Population cell that influence microtubule strucutre (%) [10]: 21.43%
Population with increased mitochondrial mass (%) [10]: 63.49%
Population with membrane disruption (%) [10]: 0.00%
Cell count normalized to cells treated with DMSO control [11]: 1.032
Cell count per well [11]: 470
Population Fragmented Nuclei (%) [11]: 6.59%
Population Healthy Nuclei (%) [11]: 81.41%
Population Pyknosed Nuclei (%) [11]: 12.00%
Population apoptotic cell (%) [11]: 25.49%
Population cell that influence microtubule strucutre (%) [11]: 28.03%
Population with increased mitochondrial mass (%) [11]: 37.86%
Population with membrane disruption (%) [11]: 0.58%
Cell count normalized to cells treated with DMSO control [12]: 1.043
Cell count per well [12]: 633
Population Fragmented Nuclei (%) [12]: 13.01%
Population Healthy Nuclei (%) [12]: 77.59%
Population Pyknosed Nuclei (%) [12]: 9.39%
Population apoptotic cell (%) [12]: 29.82%
Population cell that influence microtubule strucutre (%) [12]: 18.05%
Population with increased mitochondrial mass (%) [12]: 21.02%
Population with membrane disruption (%) [12]: 0.85%
Cell count normalized to cells treated with DMSO control [13]: 0.8779
Cell count per well [13]: 262
Population Fragmented Nuclei (%) [13]: 12.05%
Population Healthy Nuclei (%) [13]: 39.73%
Population Pyknosed Nuclei (%) [13]: 48.21%
Population apoptotic cell (%) [13]: 50.00%
Population cell that influence microtubule strucutre (%) [13]: 14.61%
Population with increased mitochondrial mass (%) [13]: 59.55%
Population with membrane disruption (%) [13]: 0.00%
Cell count normalized to cells treated with DMSO control [14]: 0.8806
Cell count per well [14]: 401
Population Fragmented Nuclei (%) [14]: 9.68%
Population Healthy Nuclei (%) [14]: 77.15%
Population Pyknosed Nuclei (%) [14]: 13.17%
Population apoptotic cell (%) [14]: 46.94%
Population cell that influence microtubule strucutre (%) [14]: 42.51%
Population with increased mitochondrial mass (%) [14]: 57.84%
Population with membrane disruption (%) [14]: 0.00%
Cell count normalized to cells treated with DMSO control [15]: 0.8057
Cell count per well [15]: 489
Population Fragmented Nuclei (%) [15]: 10.83%
Population Healthy Nuclei (%) [15]: 78.34%
Population Pyknosed Nuclei (%) [15]: 10.83%
Population apoptotic cell (%) [15]: 43.14%
Population cell that influence microtubule strucutre (%) [15]: 28.46%
Population with increased mitochondrial mass (%) [15]: 48.51%
Population with membrane disruption (%) [15]: 0.27%
Cell count normalized to cells treated with DMSO control [16]: 0.8197
Cell count per well [16]: 829
Population Fragmented Nuclei (%) [16]: 23.14%
Population Healthy Nuclei (%) [16]: 71.74%
Population Pyknosed Nuclei (%) [16]: 5.12%
Population apoptotic cell (%) [16]: 33.33%
Population cell that influence microtubule strucutre (%) [16]: 14.26%
Population with increased mitochondrial mass (%) [16]: 26.32%
Population with membrane disruption (%) [16]: 0.51%

From paper PMC12090182, “Repurposing of the RIPK1-Selective Benzo[1,4]oxazepin-4-one Scaffold for the Development of a Type III LIMK1/2 Inhibitor” (ACS Chemical Biology, 2025)
